Assay results: patent US20090192227A1, “N-Acetylcysteine Compositions and Methods for Treating Acute Exacerbations of Inflammatory Lung Disease” (priority 2005, published 2009)
Entries after “also recorded” stand apart in the source; their conditions may differ.

Legend:
[1] = doses less than NAC; effects counter to those reported for NAC; cited from earlier work
interleukin-8 (IL-8) = experiment: Phase I trial: sputum interleukin-8 (IL-8) by ELISA; format: in vivo, human; conditions: 3 patients excluded (N = 15), 4 weeks
Text: 2. Lung inflammation, as reflected chiefly by (i) sputum counts in total live leukocytes and neutrophils (along with % neutrophils in sputum); (iii) plasma/sputum levels of elastase and interleukin-8 (IL-8) measured by spectrophotometry and ELISA Differences between basal and post-NAC values were studied by matched pair analysis, first, without distinguishing dose cohorts, to detect drug effects, and second, with dose cohorts as a factor, in order to detect potential dose effects.

[2] = system: sputum leukocytes and neutrophils; experiment: Phase I trial: sputum counts of live leukocytes and neutrophils by microscopy; format: in vivo, human; conditions: 4 weeks
Text: (§1) With regards to efficacy, very significant positive effects of the treatment were documented. These positive effects (Table 2) included amelioration of: 1—Whole blood GSH (+11%, P=0.03), as measured by HPLC and blood neutrophil GSH (+17%, P=0.03), as measured by flow cytometry; 2—Live sputum leukocyte (−21%, P=0.03) and neutrophil (−25%, P=0.02) counts, as measured by microscopy and sputum elastase activity (−44%, P=0.02), as measured by kinetic spectrophotometry; and 3—Perceived weight gain (P=0.01), as measured by the CF QOL
(§2) 2. Lung inflammation, as reflected chiefly by (i) sputum counts in total live leukocytes and neutrophils (along with % neutrophils in sputum); (iii) plasma/sputum levels of elastase and interleukin-8 (IL-8) measured by spectrophotometry and ELISA
(§3) Differences between basal and post-NAC values were studied by matched pair analysis, first, without distinguishing dose cohorts, to detect drug effects, and second, with dose cohorts as a factor, in order to detect potential dose effects.

[3] = Phase 2 placebo-controlled CF trial: safety, adverse events, adherence, CF QOL; format: in vivo, human
Text: Summary. […] This single-center trial consisted of a 12-week placebo-controlled section followed by a 12-week open label section, with oral NAC 0.9 g, taken three times daily. The statistical plan for the study was designed to assess the safety and efficacy of NAC versus placebo, at 0 week and 12-week timepoints (placebo-controlled section).
Serious adverse events and adverse events. […] As used herein, the term “DIOS”, which stands for “Distal Intestinal Obstruction Syndrome” refers to a condition unique to CF that occurs due to the accumulation of viscous mucous and fecal material in the terminal ileum, caecum and ascending colon, which may cause progressive symptoms of recurrent colicky abdominal pain, bloating, nausea and anorexia, and signs of small intestinal obstruction.

sputum neutrophils = experiment: Phase 2 trial: sputum neutrophil count (live neutrophils by microscopy); format: in vivo, human
Text: (§4) Summary. Based on the success of the phase I trial, the trial proceeded to phase II. This single-center trial consisted of a 12-week placebo-controlled section followed by a 12-week open label section, with oral NAC 0.9 g, taken three times daily. The statistical plan for the study was designed to assess the safety and efficacy of NAC versus placebo, at 0 week and 12-week timepoints (placebo-controlled section). Of the 24 subjects screened for eligibility, 21 were enrolled and randomized into NAC and placebo groups. One subject asked to be withdrawn from the prior to the 6 week time point because the medication regimen was too onerous. […] Two other subjects also were removed from participation in the study by the principal investigator due to poor adherence to the study protocol. […] Thus, 18 subjects are included in this intent-to-treat (ITT) analysis (9 on NAC and 9 on placebo).
(§5) Intention-to-treat analysis of efficacy endpoints. Besides the necessary assessment of the safety of high-dose oral NAC in a placebo-controlled setting, this phase 2 trial also was designed to gain a better understanding of treatment efficacy with regards to improving inflammation, redox imbalance and lung function in CF, albeit within the limits inherent to a small study. In particular, the study looked to confirm the positive effects of high-dose oral NAC seen on sputum neutrophil count and HNE activity obtained in phase 1. The primary efficacy endpoint in this phase 2 study is sputum neutrophil count (based on the quantification of live neutrophils by microscopy, reflecting lung inflammation) and the four secondary efficacy endpoints are: (i) FEV1 (% Pred), reflecting lung function; (ii) blood neutrophil GSH, reflecting systemic redox imbalance; (iii) sputum HNE activity, reflecting lung inflammation, the current best predictor of CF lung disease; and (iv) whole blood GSH, reflecting systemic redox imbalance. […]

[4] = administered intravenously in dogs; cited from earlier work
elastase = experiment: Phase I trial: sputum elastase activity by kinetic spectrophotometry; format: in vivo, human; conditions: 4 weeks
Text: as §1, §2, §3

[5] = system: human neutrophil elastase (HNE); experiment: Phase 2 trial: sputum HNE enzymatic activity; format: in vivo
Text: as §4
as §5, with “In particular, the study looked to confirm the positive effects of high-dose oral NAC seen on sputum neutrophil count and HNE activity obtained in phase 1.” left out
(§6) These various markers of inflammation were measured independently with different methodologies (e.g., microscopy, kinetic spectrophotometry, enzyme-linked immunosorbent assay), the results of which further strengthen the significance of these positive outcomes. […]

[6] = Phase I trial: perceived weight gain by CF QOL questionnaire; format: in vivo, human; conditions: 4 weeks
Text: as §1
Any sizeable change in lung function will likely require longer treatment and larger group size, which we look forward to implementing in the placebo-controlled phase of the study.

interleukin-17 (IL-17) = experiment: Phase 2 trial: plasma levels of interleukin-17 (IL-17); format: in vivo, human; conditions: NAC group compared to placebo group, P=0.02
Text: During week 0 through week12, exacerbations of sinus/lung disease affected 9/18 subjects. Subjects were less prone to exacerbations in the NAC than in the placebo group (2/9 vs. 7/9, respectively, P=0.04, Fisher's exact test). A key molecular correlate of exacerbations, namely plasma levels of the cytokine interleukin-17 (IL-17) also was decreased in the NAC group compared to the placebo-group (P=0.02), further confirming the anti-inflammatory effect of NAC in CF and corroborating its positive effect on acute attacks. IL-17 recently has been identified as a potent T-cell derived modulator of acute neutrophilic lung inflammation [Linden, A., et al. Neutrophils, interleukin-17A and lung disease. Eur. Respir. J. 25:159-172 (2008)]

[7] = 600 mg three times daily plus prednisone plus azothioprine, one year, vs standard therapy alone; cited from earlier work
[8] = 600 mg oral NAC per day, at least two exacerbations per year for 2 years; cited from earlier work
[9] = Phase 2 trial: exacerbations of sinus/lung disease, week 0 through week 12; format: in vivo, human; conditions: NAC group, placebo 7/9, P=0.04
Text: as §4
During week 0 through week12, exacerbations of sinus/lung disease affected 9/18 subjects. Subjects were less prone to exacerbations in the NAC than in the placebo group (2/9 vs. 7/9, respectively, P=0.04, Fisher's exact test). […]

blood neutrophils = experiment: Phase I trial: absolute numbers of neutrophils in blood; format: in vivo, human; conditions: dose cohort 2 (2.4 g/d), 4 weeks
Text: Indeed, cohort 2 was more severely affected with regards to several surrogate markers of disease prior to treatment (lower FEV1, all infected with P. aeruginosa, lower perceived weight gain).

[10] = more stable than cysteine; cited from earlier work
blood neutrophil GSH = experiment: Phase 2 trial: blood neutrophil intracellular GSH; format: in vivo, human; conditions: NAC group (n=9), ITT
Text: Summary. Based on the success of the phase I trial, the trial proceeded to phase II. This single-center trial consisted of a 12-week placebo-controlled section followed by a 12-week open label section, with oral NAC 0.9 g, taken three times daily. The statistical plan for the study was designed to assess the safety and efficacy of NAC versus placebo, at 0 week and 12-week timepoints (placebo-controlled section). Of the 24 subjects screened for eligibility, 21 were enrolled and randomized into NAC and placebo groups. One subject asked to be withdrawn from the prior to the 6 week time point because the medication regimen was too onerous. […] Two other subjects also were removed from participation in the study by the principal investigator due to poor adherence to the study protocol. […]
Intention-to-treat analysis of efficacy endpoints. […] The primary efficacy endpoint in this phase 2 study is sputum neutrophil count (based on the quantification of live neutrophils by microscopy, reflecting lung inflammation) and the four secondary efficacy endpoints are: (i) FEV1 (% Pred), reflecting lung function; (ii) blood neutrophil GSH, reflecting systemic redox imbalance; (iii) sputum HNE activity, reflecting lung inflammation, the current best predictor of CF lung disease; and (iv) whole blood GSH, reflecting systemic redox imbalance. […]

[11] = system: human neutrophil elastase (HNE); experiment: Phase 2 trial: sputum HNE protein levels; format: in vivo
Text: as §4
as §5, with “In particular, the study looked to confirm the positive effects of high-dose oral NAC seen on sputum neutrophil count and HNE activity obtained in phase 1.” left out
as §6

interleukin-8 = experiment: Phase 2 trial: sputum IL-8 protein levels; format: in vivo, human
Text: as §4
as §5, with “In particular, the study looked to confirm the positive effects of high-dose oral NAC seen on sputum neutrophil count and HNE activity obtained in phase 1.” left out
as §6

[12] = Phase 2 trial: FEV1 (% Pred), lung function; format: in vivo, human
Text: as §4
Intention-to-treat analysis of efficacy endpoints. Besides the necessary assessment of the safety of high-dose oral NAC in a placebo-controlled setting, this phase 2 trial also was designed to gain a better understanding of treatment efficacy with regards to improving inflammation, redox imbalance and lung function in CF, albeit within the limits inherent to a small study. In particular, the study looked to confirm the positive effects of high-dose oral NAC seen on sputum neutrophil count and HNE activity obtained in phase 1. The primary efficacy endpoint in this phase 2 study is sputum neutrophil count (based on the quantification of live neutrophils by microscopy, reflecting lung inflammation) and the four secondary efficacy endpoints are: (i) FEV1 (% Pred), reflecting lung function; (ii) blood neutrophil GSH, reflecting systemic redox imbalance; (iii) sputum HNE activity, reflecting lung inflammation, the current best predictor of CF lung disease; and (iv) whole blood GSH, reflecting systemic redox imbalance. Data on all other main efficacy endpoints (along with sputum HNE and IL-8 protein levels as additional indicators of inflammation) is presented in Table 3 (below) for all 9 subjects of the NAC group and 9 subjects in the placebo group included in the ITT analysis.

[13] = Phase I trial: lung function by spirometry; format: in vivo, human; conditions: short-term treatment (4 weeks)
Text: 3. Lung function, as measured by spirometry. Differences between basal and post-NAC values were studied by matched pair analysis, first, without distinguishing dose cohorts, to detect drug effects, and second, with dose cohorts as a factor, in order to detect potential dose effects. […] Any sizeable change in lung function will likely require longer treatment and larger group size, which we look forward to implementing in the placebo-controlled phase of the study.

[14] = systematic review of randomized controlled trials; cited from earlier work
[15] = All (N = 18), basal vs post-NAC
[16] = NAC group (n=9), ITT, oral 0.9 g three times daily, week 12
[17] = NAC group (n=9), ITT, week 0 baseline
[18] = phase 2, wk 0 vs wk 12, not in placebo group

CC(=O)N[C@@H](CSSC[C@H](NC(C)=O)C(=O)O)C(=O)O [oxidized form of NAC, di-N-acetylcysteine]
Bioactive dose relative to NAC [1]: 10-100 fold

CC(=O)N[C@@H](CS)C(=O)O [NAC, N-acetylcysteine]
IL-8 in sputum, change (interleukin-8 (IL-8)): −25% | Live sputum leukocytes, change ([2]; 3 patients excluded (N = 15)): −28% | Live sputum neutrophils, change ([2]; 3 patients excluded (N = 15)): −32% | Neutrophils sputum (%), change ([2]; 3 patients excluded (N = 15)): −9% | Live sputum leukocytes, change [2, 15]: −21% | Live sputum neutrophils, change [2, 15]: −25% | Complete blood count and chemistry parameters ([3]; 12-week treatment, marginal changes in red blood cell distribution width and calcium, within normal range): not affected | Flatulence (CF QOL questionnaires) ([3]; NAC group, not in the placebo group, 12 weeks): significant reduction | Liver enzymes ([3]; phase 2, 12 weeks): No change | Tolerability ([3]; phase 2, oral 0.9 g three times daily, 12 weeks): very well tolerated; also recorded: lack of toxicity | Sputum neutrophil count (Log10), Value wk 12 (sputum neutrophils; [16]): 1.24 ± 0.18 Log10 | Sputum neutrophil count (Log10), Value wk 0 (sputum neutrophils; [17]): 1.41 ± 0.17 Log10 | Sputum neutrophil count, change within NAC group (sputum neutrophils; phase 2, wk 0 vs wk 12, 0.9 g three times daily, not in placebo group): significant decreases; also recorded: significantly decreased | Pulmonary oxygen toxicity and ischemic and reperfusion damage [4]: protect | Elastase in sputum, change (elastase; 3 patients excluded (N = 15)): −46% | Elastase in sputum, change (elastase; [15]): −44% | Sputum HNE enzymatic activity (Log10), Value wk 12 [5, 16]: 3.16 ± 0.20 Log10 | Sputum HNE enzymatic activity (Log10), Value wk 0 [5, 17]: 3.61 ± 0.15 Log10 | Sputum HNE enzymatic activity, change within NAC group [5, 18]: significant decreases; also recorded: significantly decreased | Perceived weight gain, change ([6]; 3 patients excluded (N = 15)): Increased | Perceived weight gain, change ([6]; All (N = 18), CF QOL): Increased | Plasma levels of IL-17 (interleukin-17 (IL-17)): decreased | Deterioration of vital capacity and DLCO in IPF [7]: slows the deterioration | Prevention of deterioration in lung function and exacerbations in COPD [8]: ineffective | Subjects with exacerbations of sinus/lung disease [9]: 2/9 | Decrease in absolute numbers of neutrophils in blood (blood neutrophils): 27% | Stability relative to cysteine [10]: about 10 times | Blood neutrophil intracellular GSH, Value wk 12 (blood neutrophil GSH; oral 0.9 g three times daily, week 12): 4.10 ± 0.10 | Blood neutrophil intracellular GSH, Value wk 0 (blood neutrophil GSH; week 0 baseline): 4.04 ± 0.08 | Sputum HNE protein levels (Log10), Value wk 12 [11, 16]: −0.27 ± 0.12 Log10 | Sputum HNE protein levels (Log10), Value wk 0 [11, 17]: 0.04 ± 0.13 Log10 | Sputum HNE protein levels, change within NAC group [11, 18]: significant decreases; also recorded: significantly decreased | Sputum IL-8 protein levels (Log10), Value wk 12 (interleukin-8; [16]): 1.81 ± 0.18 Log10 | Sputum IL-8 protein levels (Log10), Value wk 0 (interleukin-8; [17]): 2.01 ± 0.12 Log10 | Sputum IL-8 protein levels, change within NAC group (interleukin-8; [18]): significant decreases; also recorded: significantly decreased | Decline in pulmonary function tests (PFTs) ([12]; ITT analysis over the course of the phase 2 trial): no significant decline | Functional expiratory volume in 1s (% Pred), Value wk 12 [12, 16]: 75.6 ± 8.2 % Pred | Functional expiratory volume in 1s (% Pred), Value wk 0 [12, 17]: 73.7 ± 7.6 % Pred | FEV1 (% Pred), effect ([12]; phase 2, 12 weeks): No significant effect; also recorded: failed to detect any significant improvement | Pulmonary Function Testing results (spirometry) [13]: not changed; also recorded: none of the parameters measured by spirometry showed any change | Early mortality in ARDS and ALI [14]: no effect
